Assay results reported in patent publication US10617679B2, “Deuterated compounds and medical uses thereof” (JINGLUWEIDAI INFORMATION CONSULTING SERVICE (BEIJING) CO. …, priority 2016, dated 2020).

How the values were obtained:
[1] = test system: rat chronic sciatic nerve compression neuralgia model; experiment: Analgesic effects of intragastric administration in a rat chronic sciatic nerve compression neuralgia model; format: in vivo, SD rats; conditions: pain threshold 1 hour after administration
Experimental: SD rats (male, weight 160-180 g) were anesthetized using sodium pentobarbital (40 mg/kg), of which the sciatic nerves were separated in the middle segment of the right hind limbs. In the anterior segment of the sciatic nerve to be bifurcated, the sciatic nerve was separated from the surrounding tissue using a sterile glass hook. Four rings were loosely ligated with sterile chrome gut (No. 4, 0.15 mm in diameter) by an interval of 1 to 2 mm. Topically sprinkled with penicillin powder. The muscle tissue and skin were sutured. The rats were placed in a cage with cork dust. In the sham surgery group, the sciatic nerve was only exposed, and the other treatments were the same as described above. The rats after surgery were placed in a metal cage. […] The weight of the filament was recorded and set to be the threshold (in g). Meanwhile, the number of foot-lifting response to the 10 stimulations of the fiber filaments of different weights was recorded, and the highest threshold was set at 26 g.
5-6 rats in each group were intragastrically administered and the pain thresholds were measured 1 hour after administration. Statistical analysis of the thresholds was performed using non-parametric Wilcoxon 2-Sample Test and Kruskal-Wallis Test, and the data was analyzed with SASS data processing software. Analgesic percent (%)=(pain threshold after drug treatment−pain threshold before drug treatment)/(maximal analgesia threshold−pain threshold before drug treatment)[…].

rat formalin model = experiment: Analgesic effects of intragastric administration in a rat formalin model; format: in vivo, SD rats; conditions: mean ± SD; for Reaction time for phase I: licking time 0-5 min after formalin; for Reaction time for Phase II: licking time 15-30 min after formalin
Experimental: SD rats (male, weight 160-180 g) were randomly divided into groups with 6 rats in each group. After the rats were intragastrically administered different doses separately, they were placed in PVC observation boxes for habituation. After 30 min, the rats were injected subcutaneously with 20 μL of 2.7% formalin solution into the plantar surface of the left hind paws, and quickly put back in the PVC observation boxes for observation. The length of time the rats spent licking the injected-formalin paws at the early response (0-5 min, phase I) and the late response (15-30 min, Phase II) was recorded, and the analgesic activities of the test compounds were evaluated according to the length of time the rats spent licking during the period of observation. The experimental data were expressed as mean±standard deviation. The shorter the licking time, the better the analgesic effect of the compound.

[2] = test system: oxycodone-induced place preference in rats; experiment: Inhibition of oxycodone-induced place preference in rats; format: in vivo, SD rats; conditions: day 10, within 15 minutes
Experimental: SD rats (male, weight 160-180 g) were placed in conditioned place preference (CPP) training boxes, where the partition door between the boxes was open. Time the rats spent in each of the boxes was recorded within 15 min in order to determine the natural tendency of the rats. The rats were then randomly divided into groups with 10 rats in each group according to the amount of time spent in the white box. The white box was a drug box, and the black box was a box with the absence of the drug. After intragastric administration with a test compound for 40 minutes, the rats were injected subcutaneously with oxycodone (2.5 mg/kg, s.c.) or saline, and immediately placed in the white box or the black box to be trained for 45 minutes, once a day for 9 consecutive days. On the 10th day, the rats were placed in the training boxes with the partition door open. The time the rats spent in the white box was recorded within 15 minutes to evaluate effects on place preference in the rats.

heart rate in rats = experiment: Effects on heart rate in rats; format: in vivo, SD rats
Experimental: (§1) SD rats (male, weight 160-180 g) were fasted for 12 hours before administration but had free access to drinking water. The rats were randomly divided into groups. They were anesthetized with an intraperitoneal injection of 50-60 mg/kg dose of sodium pentobarbital. Each rat was fixed on the back on the surgical table. The skin was cut from the center of the neck, and an incision of about 2.5 cm was made. The subcutaneous tissue and the median muscle were separated; the trachea was fully exposed; and the endotracheal intubation was performed. The subcutaneous tissue was separated from front to back on the right side; the right common carotid artery, the vagus nerve and the sympathetic nerve were exposed; and the carotid artery cannulation was performed. Finally, the endotracheal tube and the carotid artery cannula were respectively connected to a respiration transducer and a blood pressure transducer, and then connected to a multifunctional physiological recorder. At 30 minutes after surgery, the rats were intragastrically administrated. Heart rate and blood pressure were measured at different time points after administration.

blood pressure in rats = experiment: Effects on blood pressure in rats; format: in vivo, SD rats
Experimental: as §1

Wistar rats = experiment: Evaluation of subacute toxicity (14 days, intragastric); format: in vivo; conditions: 40 mg/kg intragastric once a day for 14 days; for ALT / AST: rat
Experimental: Male Wistar rats were randomly divided into groups with 10 rats in each group and weighed. A certain concentration of a test sample was ground and suspended in a 0.5% sodium carboxymethyl cellulose solution. The sodium carboxymethyl cellulose suspension containing 40 mg/kg of the test compound and a blank sodium carboxymethyl cellulose suspension as a control were intragastrically administered, once a day for 14 consecutive days. After the last administration, the rats were fasted but had free access to drinking water for 12 hours, and then anesthetized. Their blood samples were obtained from the abdominal aortas. According to SOPB093 “Standard Operating Procedures for Serum Preparation” in National Beijing Center for Drug Safety Evaluation and Research, serum was prepared for the determination of blood biochemical and immunological indicators; according to SOPB032 “Preparation of vacuum tubes with EDTA anticoagulation”, EDTA anticoagulation was prepared for the general blood routine tests.

[3] = test dose 10 mg/kg intragastric + oxycodone 2.5 mg/kg s.c.
[4] = test dose 20 mg/kg intragastric + oxycodone 2.5 mg/kg s.c.
[5] = 20 mg/kg intragastric, time point 0
[6] = 20 mg/kg intragastric, time point 30
[7] = 20 mg/kg intragastric, time point 60
[8] = 20 mg/kg intragastric, time point 90
[9] = 20 mg/kg intragastric, time point 120
[10] = 20 mg/kg intragastric, time point 180
[11] = 40 mg/kg intragastric, time point 0
[12] = 40 mg/kg intragastric, time point 30
[13] = 40 mg/kg intragastric, time point 60
[14] = 40 mg/kg intragastric, time point 90
[15] = 40 mg/kg intragastric, time point 120
[16] = 40 mg/kg intragastric, time point 180

SMILES	Analgesic percent ([1]; 20 mg/kg intragastric)	Analgesic percent ([1]; 40 mg/kg intragastric)	Reaction time for phase I (rat formalin model; 20 mg/kg intragastric)	Reaction time for Phase II (rat formalin model; 20 mg/kg intragastric)	Reaction time for phase I (rat formalin model; 40 mg/kg intragastric)	Reaction time for Phase II (rat formalin model; 40 mg/kg intragastric)	Time spent in the drug box (Mean ± S) [2, 3]	Time spent in the drug box (Mean ± S) [2, 4]	Heart rate (heart rate in rats; [5])	Heart rate (heart rate in rats; [6])	Heart rate (heart rate in rats; [7])	Heart rate (heart rate in rats; [8])	Heart rate (heart rate in rats; [9])	Heart rate (heart rate in rats; [10])	Heart rate (heart rate in rats; [11])	Heart rate (heart rate in rats; [12])	Heart rate (heart rate in rats; [13])	Heart rate (heart rate in rats; [14])	Heart rate (heart rate in rats; [15])	Heart rate (heart rate in rats; [16])	further results
[2H]C([2H])([2H])Oc1cc2c(cc1OC([2H])([2H])[2H])[C@@H]1Cc3ccc(OC([2H])([2H])[2H])c(OC([2H])([2H])[2H])c3CN1CC2 [Formula I7, (13a S)-2,3,9,10-tetra-[(trideutero)-methoxy]-6,8,13,13a-tetrahydro-5H-isoquinolino[2,1-b]isoquinoline]	70.67%	73.53%	45.2 ± 9.9 s	58.2 ± 12.5 s	35.7 ± 9.0 s	35.9 ± 13.6 s	154.32 ± 21.38 s	135.40 ± 25.09 s	401.5 ± 32.1 BTM	380.8 ± 33.4 BTM	389.5 ± 26.6 BTM	405.3 ± 31.0 BTM	391.0 ± 24.9 BTM	398.5 ± 28.8 BTM	407.9 ± 29.5 BTM	366.8 ± 27.7 BTM	332.6 ± 24.9 BTM	343.2 ± 21.0 BTM	356.7 ± 25.8 BTM	362.0 ± 32.1 BTM	Blood pressure (blood pressure in rats; [5]): 112.6 ± 27.5 mmHg; Blood pressure (blood pressure in rats; [6]): 103.4 ± 11.7 mmHg; Blood pressure (blood pressure in rats; [7]): 104.2 ± 9.8 mmHg; Blood pressure (blood pressure in rats; [8]): 102.6 ± 7.2 mmHg; Blood pressure (blood pressure in rats; [9]): 114.1 ± 11.3 mmHg; Blood pressure (blood pressure in rats; [10]): 135.3 ± 15.6 mmHg; Blood pressure (blood pressure in rats; [11]): 113.0 ± 11.4 mmHg; Blood pressure (blood pressure in rats; [13]): 83.5 ± 7.2 mmHg; Blood pressure (blood pressure in rats; [14]): 82.6 ± 6.5 mmHg; Blood pressure (blood pressure in rats; [15]): 95.3 ± 9.5 mmHg; Blood pressure (blood pressure in rats; [16]): 101.8 ± 8.1 mmHg; ALT (Wistar rats): 84.5 ± 20.6 U/L; AST (Wistar rats): 143.8 ± 21.0 U/L; plasma ALT and AST versus control group (Wistar rats; result in words): no significant difference
[2H]C([2H])([2H])Oc1c(OC)ccc2c1CN1CCc3cc(OC)c(OC)cc3[C@@H]1C2 [Formula I1, (13a S)-2,3,10-trimethoxy-9-[(trideutero)-methoxy]-6,8,13,13a-tetrahydro-5H-isoquinolino[2,1-b]isoquinoline]			82.4 ± 33.2 s	194.0 ± 35.7 s	42.6 ± 45.0 s	92.7 ± 25.1 s															
[2H]C([2H])([2H])Oc1ccc2c(c1OC)CN1CCc3cc(OC)c(OC)cc3[C@@H]1C2 [Formula I2, (13a S)-2,3,9-trimethoxy-10-[(trideutero)-methoxy]-6,8,13,13a-tetrahydro-5H-isoquinolino[2,1-b]isoquinoline]	59.00%	68.86%	82.1 ± 16.3 s	64.5 ± 19.5 s	41.0 ± 10.7 s	46.5 ± 16.0 s	193.94 ± 44.3 s	140.59 ± 28.52 s	400.8 ± 32.1 BTM	378.3 ± 30.3 BTM	384.6 ± 48.2 BTM	388.0 ± 21.4 BTM	402.5 ± 59.3 BTM	407.0 ± 36.5 BTM	409.2 ± 41.7 BTM	390.7 ± 41.7 BTM	319.7 ± 57.2 BTM	353.8 ± 66.7 BTM	378.0 ± 47.6 BTM	407.0 ± 42.6 BTM	Blood pressure (blood pressure in rats; [5]): 113.1 ± 15.7 mmHg; Blood pressure (blood pressure in rats; [6]): 113.4 ± 17.3 mmHg; Blood pressure (blood pressure in rats; [7]): 101.5 ± 27.46 mmHg; Blood pressure (blood pressure in rats; [8]): 102.25 ± 21.6 mmHg; Blood pressure (blood pressure in rats; [9]): 113.1 ± 14.2 mmHg; Blood pressure (blood pressure in rats; [10]): 102.3 ± 7.6 mmHg; Blood pressure (blood pressure in rats; [11]): 114.6 ± 19.4 mmHg; Blood pressure (blood pressure in rats; [12]): 95.5 ± 15.9 mmHg; Blood pressure (blood pressure in rats; [13]): 82.5 ± 19.8 mmHg; Blood pressure (blood pressure in rats; [14]): 92.8 ± 18.6 mmHg; Blood pressure (blood pressure in rats; [15]): 110.5 ± 15.5 mmHg; Blood pressure (blood pressure in rats; [16]): 100.0 ± 17.8 mmHg; ALT (Wistar rats): 172.8 ± 37.5 U/L; AST (Wistar rats): 195.0 ± 32.1 U/L; histopathological examination of liver (Wistar rats; result in words): vacuolar degeneration of hepatocytes; plasma ALT and AST versus control group (Wistar rats; result in words): significant increase
[2H]C([2H])([2H])Oc1cc2c(cc1OC)CCN1Cc3c(ccc(OC)c3OC)C[C@@H]21 [Formula I3, (13a S)-3,9,10-trimethoxy-2-[(trideutero)-methoxy]-6,8,13,13a-tetrahydro-5H-isoquinolino[2,1-b]isoquinoline]	44.80%	68.67%	79.6 ± 31.3 s	126.3 ± 29.6 s	45.1 ± 29.4 s	72.3 ± 37.8 s															
[2H]C([2H])([2H])Oc1cc2c(cc1OC)CCN1Cc3c(ccc(OC)c3OC([2H])([2H])[2H])C[C@@H]21 [Formula I5, (13a S)-3,10-dimethoxy-2,9-di-[(trideutero)-methoxy]-6,8,13,13a-tetrahydro-5H-isoquinolino[2,1-b]isoquinoline]	39.40%	67.56%	85.8 ± 28.0 s	112.7 ± 29.2 s	53.4 ± 23.5 s	66.5 ± 27.6 s															
[2H]C([2H])([2H])Oc1cc2c(cc1OC)[C@@H]1Cc3ccc(OC)c(OC)c3CN1CC2 [Formula I4, (13a S)-2,9,10-trimethoxy-3-[(trideutero)-methoxy]-6,8,13,13a-tetrahydro-5H-isoquinolino[2,1-b]isoquinoline]			90.3 ± 29.0 s	151.2 ± 31.6 s	61.5 ± 36.6 s	74.3 ± 38.0 s															
